Earlier results, collected in patent US20050136114A1, “Taste masked pharmaceutical compositions comprising bitter drug and pH sensitive polymer” (COUNCIL OF SCIENTIFIC AND INDUSTRIAL RESEARCH, priority 2003, published 2005).

Assays:
[1] = in presence of Eudragit E
[2] = oral, humans

degradation [1]: significant degradation
bioavailability [2]: 32-50%
SMILES: CO/N=C(\C(=O)N[C@@H]1C(=O)N2C(C(=O)OC(C)OC(C)=O)=C(COC(N)=O)CS[C@H]12)c1ccco1 (some centres unmarked) [cefuroxime axetil]
